Molecular target: Mitogen-activated protein kinase kinase kinase kinase 1 (Homo sapiens, UniProt Q92918)
Test: HPK1 Biochemical Enzyme Assay
Protocol: HPK1 biochemical enzyme assay: HPK1 enzyme inhibition was measured using a microfluidic mobility shift assay. […] Test compounds were titrated in ten point curves (top final assay concentration 3 μM), and preincubated with enzyme/substrate mix for 30 min prior to initiation of the reaction by addition of ATP (1 mM final concentration) and substrate (1 μM final concentration; Carna Biosciences) diluted in assay buffer supplemented by MgCl2 (final assay concentration of 5 mM). Following 60 min incubation at RT, the reaction was terminated by addition of 60 μl/well termination buffer (Carna Biosciences) and signal determination using a Caliper EZ Reader (Perkin Elmer, UK).

Sequence of Mitogen-activated protein kinase kinase kinase kinase 1 (Q92918 whole entry): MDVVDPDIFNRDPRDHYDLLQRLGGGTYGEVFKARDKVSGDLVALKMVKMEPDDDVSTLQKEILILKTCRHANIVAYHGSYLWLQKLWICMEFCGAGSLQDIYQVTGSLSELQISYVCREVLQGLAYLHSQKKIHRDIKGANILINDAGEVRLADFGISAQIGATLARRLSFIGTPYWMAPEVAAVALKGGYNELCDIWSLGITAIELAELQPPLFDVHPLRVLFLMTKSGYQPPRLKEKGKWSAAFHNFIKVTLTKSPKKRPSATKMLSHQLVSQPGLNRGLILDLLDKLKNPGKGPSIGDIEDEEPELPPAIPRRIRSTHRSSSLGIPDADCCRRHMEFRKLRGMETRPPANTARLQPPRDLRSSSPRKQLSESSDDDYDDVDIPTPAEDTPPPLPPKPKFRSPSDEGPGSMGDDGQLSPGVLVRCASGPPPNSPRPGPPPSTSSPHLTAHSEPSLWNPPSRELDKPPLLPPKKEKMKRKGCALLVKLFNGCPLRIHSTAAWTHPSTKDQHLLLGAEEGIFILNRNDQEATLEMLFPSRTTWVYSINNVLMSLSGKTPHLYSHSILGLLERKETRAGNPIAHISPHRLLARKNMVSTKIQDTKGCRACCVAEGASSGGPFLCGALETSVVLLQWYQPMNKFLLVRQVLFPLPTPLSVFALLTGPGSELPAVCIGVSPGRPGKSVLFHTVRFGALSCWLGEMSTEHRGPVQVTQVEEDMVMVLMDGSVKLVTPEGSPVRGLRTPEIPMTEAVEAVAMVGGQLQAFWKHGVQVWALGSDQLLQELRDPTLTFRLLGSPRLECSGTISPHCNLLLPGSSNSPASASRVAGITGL

| IC50 | Structure (SMILES) |
| --- | --- |
| < 100 nM | CC1=CC2N=CC(c3ccc(Nc4ccc(N5CCC(O)CC5)cn4)c4c3CNC4=O)=C2C=C1 (centres undefined) [US11548890, Compound I-137] |
| in the range around 550 nM | COC1CCN(c2ccc(Nc3ccc(-c4cnc5c(F)cccn45)c4c3C(=O)NC4)nc2)CC1 [US11548890, Compound I-455] |
| < 100 nM | CC(C)(O)[C@H]1CN(c2ccc(Nc3cnc(-c4cnc5cnccn45)c4c3C(=O)NC4)nc2)CCO1 [US11548890, Compound I-486] |
| < 100 nM | CN(C)Cc1nc(Nc2ccc(-c3cnc4ccccn34)c3c2C(=O)NC3)ccc1[C@@H]1CCOC1 [US11548890, Compound I-714] |

Reference: BindingDB's records for patent US11548890 (Nimbus Saturn, 2023)
